Paper PMC11594916, “In Vitro Cell Model Investigation of Alpha-Synuclein Aggregate Morphology Using Spectroscopic Imaging” (International Journal of Molecular Sciences, 2024)

Target: T1, alpha-synuclein (αsyn) pre-formed fibrils (Homo sapiens, UniProt P37840)
T1 construct: gene SNCA; Full-length wildtype human αsyn, pre-formed amyloid fibrils (PFFs)
Assay: fluorescence titration of h-FTAA with […] recombinant fibrils, simulated binding curve; lifetime imaging (FLIM)

O=C(O)Cc1cc(-c2ccc(-c3ccc(C(=O)O)s3)s2)sc1-c1ccc(-c2sc(-c3ccc(-c4ccc(C(=O)O)s4)s3)cc2CC(=O)O)s1 [h-FTAA]
Kd: < 100 nM
